# Key:
# rats [1] = assay: Escape from enclosure with heated floor (53° C.); format: in vivo
# Description: (§1) To confirm the lack of effect of TRH upon analgesic responses, an additional group of rats was equipped with intravenous cannulae only. One day later, rats were divided into 3 groups (n=6/group). Group one received TRH alone (2.0 mg/kg--a dose with therapeutic effects in shock), group two received morphine sulfate (4 mg per kg) followed by TRH (2.0 mg per kg), and group three got morphine sulfate alone (4.0 mg per kg). Pain latencies were determined by applying a thermal stimulus to the tail, tail-flick procedure, FIG. 4a, and by measuring how long required for a rat to escape from an enclosure with a heated floor (53° C.), FIG. 4b.
# [2] = tested on: rats subjected to hemorrhagic shock; assay: Hemorrhagic shock, Experiment No. 3; format: in vivo; conditions: TRH 2 mg/kg i.v.
# Description: Another group of rats was subjected to hemorrhagic shock according to our previous experimental design. In a total of 27 rats, blood was withdrawn from the indwelling external jugular vein cannula; MAP fell from 96.5±1.6 mm Hg to 37.2±1.0 mm Hg where it was maintained for 20 minutes. A total of […] (body weight) of blood was removed, a volume approximating 45% of estimated total blood volume. Following the 20 minutes of controlled oligemia, animals were treated with either i.v. TRH (2 mg/kg, m=15) or an equal volume of i.v. saline (1.0 ml/kg, n=12) followed by a 0.2 ml cannula flush. Shed blood was not returned. […] The duration of this effect was about 30 minutes, approximately equivalent to the duration of the pressor response to TRH in normotensive rats not subjected to shock, FIG. 3a. In this model, saline-treated rats also experienced an increase in MAP, a consequence of the fluid volume infused.
# [3] = tested on: rats subjected to endotoxic shock; assay: Endotoxic shock (E. coli lipopolysaccharide endotoxin i.v.), Experiment No. 1; format: in vivo, male Sprague-Dawley rats; conditions: TRH 2 mg/kg i.v.
# Excerpt: (§2) Tail-artery and external-jugular vein cannulae were implanted in male Sprague-Dawley rats (250-300 g; Zivic-Miller Labs) according to standard surgical techniques. Twenty-four hours later, the arterial cannula were connected to a microtransducer (Narco Biosystems, RP 1500 attached to a Beckman physiograph, type R). This arrangement permitted continuous measurement of blood pressure and heart rate in awake, freely moving rats in their home cages.
# A second group of rats was subjected to endotoxic vasogenic, septic) shock by the i.v. administration of Escherichia coli lipopolysaccharide endotoxin (15 mg/kg; Difco, control #654109). In these animals, MAP fell to 67-70 mm Hg, which was approximately 26% (24 mm Hg) below baseline levels of 92.7±1.9 mm Hg (n=22). These rats, randomly divided into two groups, were treated with either i.v. TRH (2 mg/kg, n=13) or an equal volume of i.v. saline (1.0 ml/kg, n=11), followed by a 0.2 ml cannula flush.
# rats [4] = assay: Behavioral effects of intravenous TRH (CNS stimulant); format: in vivo
# Description: (§3) Follow-up studies were performed to evaluate other physiological parameters, TRH dose-response characteristics, and the effect of TRH on endotoxic shock survival in the rat. The experiments were conducted identically as described above in Experiment No. 1 for initial endotoxic shock studies, except heart rate, pulse pressure, respiration rate, and behavioral measures were examined following treatment with intravenous saline or TRH (0.2, 0.63, 2.0, 6.34, or 20.0 mg per kilogram body weight). Survival at 2 hours post drug treatment was also assessed. […] Pressure fell from 98.0±1.3(SE) millimeters of mercury (mm Hg) to 70.7±1.6 (SE) mm Hg, student's t=13.3, p 0.001.
# In addition to its effects upon physiological parameters, intravenous TRH also produced a variety of behavioral effects indicative of its action as a CNS stimulant.
# [5] = tested on: control rats not subjected to shock; assay: Cardiovascular effects of i.v. TRH in control rats not subjected to shock; format: in vivo, male Sprague-Dawley rats; conditions: TRH 2 mg/kg i.v.
# Excerpt: as §2
# In control rats which were not subjected to shock, the cardiovascular effects of intravenous (i.v.) TRH alone were determined. A dose of 2 mg/kg body weight TRH (Beckman Labs) was injected, followed by a cannula flush (0.2 ml saline) to ensure complete drug delivery. Cardiovascular parameters were monitored for two hours. TRH administration caused a significant increase in mean arterial pressure (MAP) of 11.1±1.5 mm Hg (n-10, Student's t=7.25, p 0.001), with peak effects observed at 5-minute post-injection and persisting for 30 minutes (FIG. 1).
# rats [6] = assay: Tail-flick procedure (thermal stimulus to the tail); format: in vivo; conditions: n=6
# Description: as §1
# [7] = tested on: rats subjected to endotoxic shock; assay: Endotoxic shock follow-up: dose-response, cardiorespiratory variables and survival, Experiment No. 2; format: in vivo, rat; conditions: for pulse pressure / change in mean arterial pressure / respiratory rate / heart rate: 15 min following treatment; for survival, alive/dead: 2 hrs following treatment (saline 4/4)
# Description: as §3
# When saline-control rat mortality was compared to mortality in all TRH-treated animals over the 2 hour measurement interval, there was a significant decrease in the lethal effects of endotoxemia produced by a single injection of this substance (Fisher exact probability, p=0.01).
compound,measurement,setting,value
"NC(=O)[C@@H]1CCCN1C(=O)[C@H](Cc1c[nH]cn1)NC(=O)[C@@H]1CCC(=O)N1 [TRH, L-pyroglutamyl-L-histidyl-L-proline amide]","pain latency, escape from heated floor","rats [1]; TRH alone 2.0 mg/kg i.v., n=6, 53° C.",no effect
same,"effect on morphine-induced analgesia, escape from heated floor","rats [1]; morphine sulfate 4 mg per kg followed by TRH 2.0 mg per kg, n=6",did not alter the intensity or duration of morphine-induced analgesia
same,duration of MAP effect,[2],about 30 minutes
same,MAP higher than saline-control rats,"[2]; n=15, first 15 minutes following injection",20-25 mm Hg
same,MAP area scores vs saline,"[2]; Student's t=2.11, p<0.05",significantly greater
same,increase in MAP,"[3]; n=13, average during first 30 minutes post-treatment, endotoxin 15 mg/kg",20-25 mm Hg
same,MAP area scores vs saline,"[3]; triangulation of response-time data, Student's t=5.66, p<0.001",significant differences between the two treatment groups
same,lowest dose at which wet-dog shaking behavior was observed,rats [4]; intravenous TRH,0.63 mg per kg
same,"tail-rattling, oral ""chewing"" stereotypies, and piloerection",rats [4]; intravenous TRH 6.34 or 20.0 mg per kg body weight,frequently observed
same,persistence of MAP increase,[5]; control rats,30 min
same,time of peak effect on MAP post-injection,[5]; control rats,5 min
same,increase in mean arterial pressure (MAP),"[5]; normotensive control rats, n=10",11.1±1.5 mm Hg
same,"pain latency, tail-flick",rats [6]; TRH alone 2.0 mg/kg i.v.,no effect
same,"effect on morphine-induced analgesia, tail-flick",rats [6]; morphine sulfate 4 mg per kg followed by TRH 2.0 mg per kg,did not alter the intensity or duration of morphine-induced analgesia
same,TRH dose vs improvement in MAP,"[7]; 15 minutes following treatment, n=34, r=0.43, p<0.02",significant dose-response correlation
same,pulse pressure,"[7]; TRH 0.20 mg/Kg IV, n=8, spread ±2.9",24.4 mm Hg
same,change in mean arterial pressure,"[7]; TRH 0.20 mg/Kg IV, n=8, spread ±5.1",21.4 mm Hg
same,respiratory rate,"[7]; TRH 0.20 mg/Kg IV, n=8, spread ±6.8",107.0 breaths/min.
same,heart rate,"[7]; TRH 0.20 mg/Kg IV, n=8, spread ±16.8",465.0 beats/min
same,"survival, alive/dead",[7]; TRH 0.20 mg/Kg,7/1
same,respiratory rate,"[7]; TRH 0.63 mg/Kg IV, n=8, spread ±4.0",109.0 breaths/min.
same,change in mean arterial pressure,"[7]; TRH 0.63 mg/Kg IV, n=8, spread ±5.2",20.9 mm Hg
same,pulse pressure,"[7]; TRH 0.63 mg/Kg IV, n=8, spread ±5.7",36.2 mm Hg
same,heart rate,"[7]; TRH 0.63 mg/Kg IV, n=8, spread ±22.4",470.0 beats/min
same,"survival, alive/dead",[7]; TRH 0.63 mg/Kg,8/0
same,pulse pressure,"[7]; TRH 2.00 mg/Kg IV, n=8, spread ±3.9",33.1 mm Hg
same,change in mean arterial pressure,"[7]; TRH 2.00 mg/Kg IV, n=8, spread ±5.1",24.2 mm Hg
same,respiratory rate,"[7]; TRH 2.00 mg/Kg IV, n=8, spread ±6.9",125.0 breaths/min.
same,heart rate,"[7]; TRH 2.00 mg/Kg IV, n=8, spread ±24.0",517.5 beats/min
same,"survival, alive/dead",[7]; TRH 2.00 mg/Kg,7/1
same,change in mean arterial pressure,"[7]; TRH 6.34 mg/Kg IV, n=8, spread ±3.7",35.1 mm Hg
same,pulse pressure,"[7]; TRH 6.34 mg/Kg IV, n=8, spread ±4.1",37.5 mm Hg
same,respiratory rate,"[7]; TRH 6.34 mg/Kg IV, n=8, spread ±4.3",147.0 breaths/min.
same,heart rate,"[7]; TRH 6.34 mg/Kg IV, n=8, spread ±21.0",530.0 beats/min
same,"survival, alive/dead",[7]; TRH 6.34 mg/Kg,8/0
same,effect on pulse pressure and heart rate,"[7]; TRH i.v., endotoxic shock",increased pulse pressure and heart rate
same,effect on respiration rate,"[7]; TRH i.v., endotoxic shock",increased in a dose-related manner
same,survival following endotoxic shock,"[7]; all TRH-treated vs saline-control, 2 hour interval, single injection, Fisher exact probability p=0.01",significantly improved
